Test results reported in PMC8343220, “The selectivity of α‐adrenoceptor agonists for the human α1A, α1B, and α1D‐adrenoceptors” (Pharmacology Research & Perspectives, 2021).
Read-outs that look alike come from different tables or passages of the source.

Tests used:
human α1B‐adrenoceptor [1] = biological target: T1, human α1B‐adrenoceptor (Homo sapiens, UniProt P35368); assay: ^3H‐prazosin whole‐cell radioligand binding, CHO‐α1B cells
T1 construct: expressed in transfected cells; host or cells: CHO-K1
T1 sequence (P35368 1-520): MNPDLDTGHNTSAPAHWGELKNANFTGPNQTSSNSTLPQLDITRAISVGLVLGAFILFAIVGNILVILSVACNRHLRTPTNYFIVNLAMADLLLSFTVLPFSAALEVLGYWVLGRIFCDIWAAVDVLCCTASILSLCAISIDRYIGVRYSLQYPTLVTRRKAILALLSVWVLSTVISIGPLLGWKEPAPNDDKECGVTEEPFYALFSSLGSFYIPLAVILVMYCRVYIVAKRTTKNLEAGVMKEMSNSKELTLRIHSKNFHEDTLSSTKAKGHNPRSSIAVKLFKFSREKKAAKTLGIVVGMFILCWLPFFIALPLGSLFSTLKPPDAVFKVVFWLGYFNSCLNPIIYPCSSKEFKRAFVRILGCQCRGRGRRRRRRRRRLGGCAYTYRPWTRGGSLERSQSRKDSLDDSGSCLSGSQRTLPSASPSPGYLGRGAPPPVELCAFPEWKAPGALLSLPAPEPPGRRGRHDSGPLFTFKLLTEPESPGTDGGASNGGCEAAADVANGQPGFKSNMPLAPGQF

human α1A‐adrenoceptor [2] = biological target: T2, human α1A‐adrenoceptor (Homo sapiens, UniProt P35348); assay: ^3H‐prazosin whole‐cell radioligand binding, CHO‐α1A cells
T2 construct: expressed in transfected cells; host or cells: CHO-K1
T2 sequence (P35348 1-466): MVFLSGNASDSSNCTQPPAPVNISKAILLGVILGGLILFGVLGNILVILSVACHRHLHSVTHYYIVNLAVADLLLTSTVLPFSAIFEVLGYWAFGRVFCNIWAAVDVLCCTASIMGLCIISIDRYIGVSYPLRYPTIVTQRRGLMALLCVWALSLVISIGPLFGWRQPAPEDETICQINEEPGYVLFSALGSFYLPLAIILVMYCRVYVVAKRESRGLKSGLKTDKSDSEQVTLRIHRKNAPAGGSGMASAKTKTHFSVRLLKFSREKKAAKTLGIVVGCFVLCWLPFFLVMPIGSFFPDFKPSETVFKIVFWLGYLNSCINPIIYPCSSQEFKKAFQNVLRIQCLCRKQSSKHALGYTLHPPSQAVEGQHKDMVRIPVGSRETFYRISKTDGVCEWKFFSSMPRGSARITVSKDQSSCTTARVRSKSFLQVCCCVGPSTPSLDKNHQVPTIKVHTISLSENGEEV

human α1B‐adrenoceptor [3] = biological target: T1, human α1B‐adrenoceptor; assay: ERK1/2‐phosphorylation (Surefire Alphascreen), CHO‐α1B cells; assay type: cell-based
[4] = biological target: T3, human α1D‐adrenoceptor (full length) (Homo sapiens, UniProt P25100); assay: ^3H‐cAMP accumulation, CHO‐α1D cells; assay type: cell-based; conditions: cAMP accumulation without forskolin
T3 construct: human α1D‐adrenoceptor (full length) were used; expressed in transfected cells; host or cells: CHO-K1
T3 sequence (P25100 1-572): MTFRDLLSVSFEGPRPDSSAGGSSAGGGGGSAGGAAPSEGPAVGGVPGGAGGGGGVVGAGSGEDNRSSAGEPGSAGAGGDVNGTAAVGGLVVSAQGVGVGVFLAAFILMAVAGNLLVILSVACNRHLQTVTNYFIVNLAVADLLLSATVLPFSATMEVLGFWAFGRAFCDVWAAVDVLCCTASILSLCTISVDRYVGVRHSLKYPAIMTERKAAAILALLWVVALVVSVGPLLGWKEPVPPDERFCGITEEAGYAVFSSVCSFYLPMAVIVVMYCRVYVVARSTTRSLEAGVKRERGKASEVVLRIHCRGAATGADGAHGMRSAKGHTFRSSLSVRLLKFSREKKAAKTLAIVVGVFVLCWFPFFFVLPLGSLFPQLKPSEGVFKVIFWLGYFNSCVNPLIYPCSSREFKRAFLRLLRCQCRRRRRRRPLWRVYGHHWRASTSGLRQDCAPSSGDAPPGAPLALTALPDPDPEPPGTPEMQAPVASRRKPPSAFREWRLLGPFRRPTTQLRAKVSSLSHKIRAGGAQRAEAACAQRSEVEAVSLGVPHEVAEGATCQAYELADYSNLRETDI

[5] = test system: parental CHO cell line without any transfected receptors; assay: ^3H‐cAMP accumulation, parent CHO cells without transfected receptors; assay type: cell-based, Chinese hamster
human α1A‐adrenoceptor [6] = biological target: T2, human α1A‐adrenoceptor; assay: ^3H‐cAMP accumulation, CHO‐α1A cells; assay type: cell-based; conditions: for cAMP accumulation % forskolin: % of 10 µM forskolin response
[7] = test system: parental CHO cell line without any transfected receptors; assay: Forskolin‐stimulated cAMP accumulation, parent CHO cells without transfected receptors; assay type: cell-based, Chinese hamster
human α1B‐adrenoceptor [8] = biological target: T1, human α1B‐adrenoceptor; assay: ^3H‐cAMP accumulation in the presence of 10 μM forskolin, CHO‐α1B cells; assay type: cell-based
human α1A‐adrenoceptor [9] = biological target: T2, human α1A‐adrenoceptor; assay: ERK1/2‐phosphorylation (Surefire Alphascreen), CHO‐α1A cells; assay type: cell-based
human α1A‐adrenoceptor [10] = biological target: T2, human α1A‐adrenoceptor; assay: Intracellular free calcium mobilization, CHO‐α1A cells; assay type: cell-based
[11] = biological target: T3, human α1D‐adrenoceptor (full length); assay: ^3H‐cAMP accumulation in the presence of 10 μM forskolin, CHO‐α1D cells; assay type: cell-based; conditions: CHO‐α1D cells; for cAMP (in presence of forskolin) Log EC50: log values given negative
[12] = biological target: T3, human α1D‐adrenoceptor (full length); assay: Intracellular free calcium mobilization, CHO‐α1D cells; assay type: cell-based
[13] = test system: parental CHO cell line without any transfected receptors; assay: ERK1/2‐phosphorylation, parent CHO cells without transfected receptors; assay type: cell-based, Chinese hamster
human α1B‐adrenoceptor [14] = biological target: T1, human α1B‐adrenoceptor; assay: Intracellular free calcium mobilization, CHO‐α1B cells; assay type: cell-based
[15] = test system: parental CHO cell line without any transfected receptors; assay: Intracellular calcium mobilization, parent CHO cells without transfected receptors; assay type: cell-based, Chinese hamster; conditions: for Emax: Cricetulus griseus, CHO, read-out: Intracellular calcium release % ionomycin
human α1B‐adrenoceptor [16] = biological target: T1, human α1B‐adrenoceptor; assay: ^3H‐cAMP accumulation, CHO‐α1B cells; assay type: cell-based
human α1A‐adrenoceptor [17] = biological target: T2, human α1A‐adrenoceptor; assay: ^3H‐cAMP accumulation in the presence of 10 μM forskolin, CHO‐α1A cells; assay type: cell-based; conditions: for cAMP accumulation (in presence of forskolin) Fold increase: fold increase of the forskolin response
[18] = biological target: T3, human α1D‐adrenoceptor (full length); assay: ERK1/2‐phosphorylation (Surefire Alphascreen), CHO‐α1D cells; assay type: cell-based
[19] = biological target: T3, human α1D‐adrenoceptor (full length); assay: ^3H‐prazosin whole‐cell radioligand binding, CHO‐α1D cells
[20] = ERK1/2‐phosphorylation Log EC50
[21] = Intracellular calcium release Log EC50

Compound | Affinity selectivity ratio α1A vs α1B (human α1A‐adrenoceptor [2]) | Affinity selectivity ratio α1A vs α1D (human α1A‐adrenoceptor [2]) | Kd (human α1A‐adrenoceptor [2]) | ERK1/2‐phosphorylation % PDBu (human α1B‐adrenoceptor [3]) | cAMP Log EC50 [4] | cAMP accumulation % forskolin [5] | EC50 (human α1A‐adrenoceptor [6]) | cAMP accumulation % forskolin (human α1A‐adrenoceptor [6]; CHO‐α1A cells) | cAMP accumulation (in presence of forskolin) % forskolin-stim cAMP [7] | cAMP accumulation (in presence of forskolin) Log EC50 [7] | EC50 (human α1A‐adrenoceptor [9]) | ERK1/2‐phosphorylation % PDBu (human α1A‐adrenoceptor [9]) | EC50 (human α1A‐adrenoceptor [10]) | Intracellular calcium release % ionomycin (human α1A‐adrenoceptor [10]) | Log efficacy ratio KD /EC50 (human α1A‐adrenoceptor [10]) | cAMP (in presence of forskolin) Log EC50 [11] | Intracellular calcium release % ionomycin [12] | Emax [15] | EC50 (human α1A‐adrenoceptor [17]) | cAMP accumulation (in presence of forskolin) Fold increase (human α1A‐adrenoceptor [17]; CHO‐α1A cells) | also measured
C=CCc1ccccc1OC(C)C1=NCCN1 (centres unmarked) [Allyphenyline] | 47.9 fold | 8.7 fold | 0.162 µM | 65.3 ± 3.0% | No response | No response | 0.0891 µM | 82.4 ± 5.5% | No response | No response | 0.00158 µM | 79.3 ± 3.5% | 0.00295 µM | 58.6 ± 3.0% | 1.74 | No response | 12.3 ± 1.4% | 5.9 ± 1% | 0.00794 µM | 2.38 ± 0.08 fold | Kd (human α1B‐adrenoceptor [1]): 7.76 µM; EC50 (human α1B‐adrenoceptor [3]): 0.282 µM; EC50 (human α1B‐adrenoceptor [8]): 0.0513 µM; cAMP accumulation (in presence of forskolin) Fold increase (human α1B‐adrenoceptor [8]; CHO‐α1B cells, fold increase of the forskolin response): 1.87 ± 0.07 fold; cAMP (in presence of forskolin) Fold increase ([11]; fold increase of the forskolin response): No response; EC50 [12]: 0.316 µM; Log efficacy ratio KD /EC50 [12]: 0.65; Emax at 100 µM ([13]; Cricetulus griseus, CHO, read-out: ERK1/2-phosphorylation % PDBu at 100μM): 12.7 ± 3.1%; EC50 (human α1B‐adrenoceptor [14]): 0.0794 µM; Intracellular calcium release % ionomycin (human α1B‐adrenoceptor [14]): 39.9 ± 1.9%; Log efficacy ratio KD /EC50 (human α1B‐adrenoceptor [14]): 1.99; EC50 (human α1B‐adrenoceptor [16]): 0.174 µM; cAMP accumulation % forskolin (human α1B‐adrenoceptor [16]; CHO‐α1B cells, % forskolin maximum response): 5.5 ± 0.9%; EC50 [18]: 6.92 µM; ERK1/2‐phosphorylation % PDBu [18]: 29.1 ± 4.7%; Affinity selectivity ratio α1B vs α1D [19]: 5.5 fold; Kd [19]: 1.41 µM
CN[C@@H](C)[C@H](O)c1ccccc1 [Ephedrine] | >11.7 fold | 3.2 fold | 85.1 µM | – | – | No response | 117 µM | 7.8 ± 1.3% | No response | No response | 7.59 µM | 72.7 ± 6.5% | 3.16 µM | 43.1 ± 1.6% | 1.43 | – | – | 5.3 ± 1.6% | 70.8 µM | 1.70 ± 0.10 fold | IC50 (human α1B‐adrenoceptor [1]): > 1000 µM; Intracellular calcium release % Ionomycin at 100 µM [12]: 2.6 ± 1.3%; ERK1/2-phosphorylation % PDBu [13]: No response; ERK1/2-phosphorylation Log EC50 [13]: No response; ERK1/2‐phosphorylation % PDBu at 100 µM [18]: 3.3 ± 2.1%; Affinity selectivity ratio α1B vs α1D [19]: >3.7 fold; Kd [19]: 269 µM
CC(Cc1ccc(O)cc1)NCC(O)c1cc(O)cc(O)c1 (centres unmarked) [Fenoterol] | – | – | – | – | No response | No response | – | – | No response | – | – | – | – | – | – | No response | – | – | – | – | Kd (human α1B‐adrenoceptor [1]; Log KD α1B, ^3H‐prazosin whole cell binding): 123 µM; Kd (human α1B‐adrenoceptor [1]; Log KD, ^3H‐prazosin binding): 123 µM; Kd (human α1A‐adrenoceptor [2]; Log KD α1A, ^3H‐prazosin whole cell binding): 5.13 µM; EC50 (human α1B‐adrenoceptor [3]; [20]): 2.75 µM; cAMP accumulation Log EC50 (human α1A‐adrenoceptor [6]; CHO‐α1A cells, 5 h): No response; EC50 (human α1A‐adrenoceptor [9]; [20]): 2.04 µM; EC50 (human α1A‐adrenoceptor [10]; [21]): 0.309 µM; ERK1/2-phosphorylation % PDBu [13]: No response; EC50 (human α1B‐adrenoceptor [14]; [21]): 0.537 µM; Intracellular calcium release % ionomycin [15]: No response; cAMP accumulation (in presence of forskolin) Log EC50 (human α1A‐adrenoceptor [17]; CHO‐α1A cells, 10 μM forskolin): No response; EC50 [18]: 3.98 µM; Kd ([19]; 3H‐prazosin binding Log KD): 44.7 µM; Kd ([19]; Log KD α1D, ^3H‐prazosin whole cell binding): 44.7 µM
CCC1(c2cnc[nH]2)Cc2ccccc2C1 [Atipamezole] | – | – | – | No response | – | No response | – | 14.5 ± 2.6% | No response | No response | – | 87.1 ± 5.0% | – | 44.5 ± 2.6% | 0.62 | – | No response | – | – | 2.00 ± 0.10 fold | ERK1/2‐phosphorylation Log EC50 (human α1B‐adrenoceptor [3]; CHO‐α1B cells, for bi‐phasic responses the initial stimulatory part): No response; EC50 (human α1A‐adrenoceptor [6]; CHO‐α1A cells, 5 h, read-out: cAMP accumulation Log EC50 (converted)): 1.17 µM; EC50 (human α1A‐adrenoceptor [9]; CHO‐α1A cells, 2–4 min, ^a bi‐phasic: initial stimulatory part, ^b also active in parent CHO cells, read-out: ERK1/2‐phosphorylation Log EC50 (converted)): 0.1 µM; EC50 (human α1A‐adrenoceptor [10]; CHO‐α1A cells, given as log EC50 (negative), read-out: Intracellular calcium release Log EC50 (converted)): 0.245 µM; Intracellular calcium release Log EC50 ([12]; CHO‐α1D cells, log values given negative): No response; ERK1/2-phosphorylation % PDBu at 10μM [13]: 3.1 ± 1.9%; Intracellular calcium release % Ionomycin at 100 µM (human α1B‐adrenoceptor [14]): 18.1 ± 4.8%; Intracellular calcium release % ionomycin [15]: No response; EC50 (human α1A‐adrenoceptor [17]; CHO‐α1A cells, 10 μM forskolin, read-out: cAMP accumulation (in presence of forskolin) Log EC50 (converted)): 0.479 µM; ERK1/2‐phosphorylation % PDBu at 10 µM [18]: 5.3 ± 4.6%
